Laboratory results from patent US20100081661A1, “HEME OXYGENASE INHIBITORS, SCREENING METHODS FOR HEME OXYGENASE INHIBITORS AND METHODS OF USE OF HEME OXYGENASE INHIBITORS FOR ANTIMICROBIAL THERAPY” (UNIVERSITY OF MARYLAND, BALTIMORE, priority 2006, published 2010).
Like-named read-outs stand apart in the source and are kept apart here.

What was measured:
[1] = target: pa-HO (Pseudomonas aeruginosa, UniProt O69002); type: binding; conditions: for NMR sat. transfer: Table 2, paHO; for NMR pa-HO: Table 3A; for NMR pa-HO: key: Shows binding by NMR method = +; Ambig = ambiguous
[2] = test system: P. aeruginosa; assay: MIC50 for P. aeruginosa; type: cell-based, Pseudomonas aeruginosa; conditions: for MIC / minimum inhibition conc: Table 2; for MIC: read-out: minimum inhibition conc
[3] = target: nm-HO (Neisseria meningitidis, UniProt Q9AH50); type: cell-based; conditions: Table 2; colour of cell pellet (white = no biliverdin, green = biliverdin) or toxicity to cells
[4] = Pseudomonas aeruginosa, Table 3A, read-out: MIC 50
[5] = Pseudomonas aeruginosa, Table 3B, P. aeruginosa, read-out: MIC 50

pa-HO, sequence (O69002 1-198): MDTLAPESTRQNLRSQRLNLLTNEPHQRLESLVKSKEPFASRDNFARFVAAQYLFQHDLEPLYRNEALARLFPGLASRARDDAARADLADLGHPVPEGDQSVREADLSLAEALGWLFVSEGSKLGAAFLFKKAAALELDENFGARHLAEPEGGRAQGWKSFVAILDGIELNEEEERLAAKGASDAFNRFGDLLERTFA
nm-HO, sequence (Q9AH50 1-209): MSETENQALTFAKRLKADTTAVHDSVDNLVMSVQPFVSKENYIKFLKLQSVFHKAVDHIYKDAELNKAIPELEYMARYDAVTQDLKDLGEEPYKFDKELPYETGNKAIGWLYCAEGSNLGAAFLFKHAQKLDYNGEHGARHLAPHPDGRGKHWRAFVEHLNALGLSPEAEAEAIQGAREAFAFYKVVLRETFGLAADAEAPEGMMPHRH

| SMILES | NMR sat. transfer [1] | other results |
| --- | --- | --- |
| C=CCn1c(S)cc2sc3c(c2c1=O)CCN(C)C3 [Compound 128] | Alias: Spec-4 fluorescence binding: nd minimum inhibition conc: nd NMR sat. transfer: do not bind paHO | – |
| COc1ccc(C(=O)COC(=O)/C=C/c2ccccc2)cc1 [Compound 74] | Alias: CB-1 fluorescence binding: nd minimum inhibition conc: nd NMR sat. transfer: do not bind paHO | – |
| NCC(=O)N(O)Cc1ccccc1 [Compound 127] | yes, bind paHO | NMR pa-HO [1]: +; MIC ([2]; Pseudomonas aeruginosa): > 1000 µg/mL; MIC50 [2, 4]: > 1000 µg/mL; MIC50 ([2]; Table 3B, P. aeruginosa): >1000 µg/mL |
| Cc1ccccc1C(=O)Nc1cc(C(=O)O)cc(C(=O)O)c1 [Compound 6] | Alias: CB-17 fluorescence binding: nd minimum inhibition conc: nd NMR sat. transfer: binds paHO | – |
| N#CCc1ccc(NC2=NS(=O)(=O)c3ccccc32)cc1 [Compound 56] | Alias: CD-16 fluorescence binding: nd minimum inhibition conc: nd NMR sat. transfer: do not bind paHO | – |
| O=CNc1nonc1NNc1ccccc1 [Compound 144] | Alias: CB-15 fluorescence binding: nd minimum inhibition conc: nd NMR sat. transfer: tested, ambiguous | – |
| O=C(O)CN1C(=O)c2ccccc2C1=O [Compound 5] | Alias: CB-4 fluorescence binding: nd minimum inhibition conc: nd NMR sat. transfer: binds paHO | – |
| O=[N+]([O-])c1cccc(CN2CCNCC2)c1 [Compound 83] | yes, bind paHO | NMR pa-HO [1]: +; minimum inhibition conc [2]: no antibacterial activity; MIC 50 (ug/ml) ([2]; Table 3A): no antibact activity |
| Cc1cc(-c2ccc(F)cc2)nc2cc(C(=O)O)nn12 [Compound 85] | yes, bind paHO | NMR pa-HO [1]: +; MIC50 [2, 5]: > 1000 µg/mL; minimum inhibition conc [2]: no antibacterial activity; MIC 50 (ug/ml) ([2]; Table 3A): no antibact activity |
| CCN1CCN(CCN)CC1 [Compound 90] | Alias: CD-19 fluorescence binding: nd minimum inhibition conc: nd NMR sat. transfer: do not bind paHO | – |
| Oc1ccccc1/C=N/Nc1nnn[nH]1 [Compound 140] | Alias: CB-11 fluorescence binding: nd minimum inhibition conc: nd NMR sat. transfer: binds paHO | – |
| c1cncc(CNCc2cccnc2)c1 [Compound 64] | Alias: Spec-12 fluorescence binding: nd minimum inhibition conc: nd NMR sat. transfer: do not bind paHO | – |
| O=C(O)CSc1ncnc2ccccc12 [Compound 36] | binds paHO | NMR pa-HO [1]: +; minimum inhibition conc [2]: no antibacterial activity; MIC 50 (ug/ml) ([2]; Table 3A): no antibact activity |
| CC(N)c1ccc2ccccc2c1 (stereo not shown) [Compound 103] | yes, bind paHO | NMR pa-HO [1]: +; MIC ([2]; Pseudomonas aeruginosa): > 250 µg/mL; MIC50 [2, 4]: > 250 µg/mL; MIC50 ([2]; Table 3B, P. aeruginosa): >250 µg/mL |
| O=C(O)CCn1ncc2ccccc21 [Compound 51] | Alias: CD-5 fluorescence binding: nd minimum inhibition conc: nd NMR sat. transfer: do not bind paHO | – |
| CC(=O)Oc1ccc(-c2cccc(C(=O)O)c2)cc1 [Compound 61] | yes, bind to paHO | NMR pa-HO [1]: +; minimum inhibition conc [2]: no antibacterial activity; MIC 50 (ug/ml) ([2]; Table 3A): no antibact activity |
| Cc1ccc(CN2CCN(Cc3ccccc3)CC2)cc1 [Compound 80] | Alias: CB-10 fluorescence binding: nd minimum inhibition conc: nd NMR sat. transfer: binds paHO | – |
| O=C(O)c1ccc2c(c1)C(=O)N(c1ccc(Cl)cc1)C2=O [Compound 77] | Alias: CB-16 fluorescence binding: nd minimum inhibition conc: nd NMR sat. transfer: binds paHO | – |
| Cn1c(=O)c(CC(=O)C(=O)O)nc2ccccc21 [Compound 152] | yes, bind paHO | NMR pa-HO [1]: +; MIC50 [2, 5]: > 1000 µg/mL; minimum inhibition conc [2]: no antibacterial activity; MIC 50 (ug/ml) ([2]; Table 3A): no antibact activity |
| Cn1c(=N)n(CC(=O)O)c2ccccc21 [Compound 153] | Alias: CD-9 fluorescence binding: nd minimum inhibition conc: nd NMR sat. transfer: do not bind paHO | – |
| NCCNS(=O)(=O)c1cccc(C(=O)O)c1 [Compound 18] | Alias: Spec-7 fluorescence binding: nd minimum inhibition conc: nd NMR sat. transfer: do not bind paHO | – |
| Cc1cc(C(=O)O)nn1-c1ccccc1 [Compound 115] | yes, bind paHO | NMR pa-HO [1]: +; MIC50 [2, 5]: > 1000 µg/mL; minimum inhibition conc [2]: no antibacterial activity; MIC 50 (ug/ml) ([2]; Table 3A): no antibact activity |
| O=C(O)CCC(=O)Nc1ccc(Oc2ccccc2)cc1 [Compound 48] | do not bind paHO | E. coli assay [3]: white pellet |
| C(=N\Nc1nc(-c2cccnc2)cs1)/c1cccnc1 [Compound 3] | Alias: CB-28 fluorescence binding: nd minimum inhibition conc: nd NMR sat. transfer: does not bind paHO | – |
| O=C(CNc1ccc2ccccc2c1)N/N=C/c1ccccn1 [Compound 10] | Alias: CD-8 fluorescence binding: nd minimum inhibition conc: nd NMR sat. transfer: do not bind paHO | – |
| N#Cc1ncc(-c2ccccc2)nc1C#N [Compound 120] | Alias: Spec-15 fluorescence binding: nd minimum inhibition conc: nd NMR sat. transfer: do not bind paHO | – |

| SMILES | NMR sat. transfer [1] | other results |
| --- | --- | --- |
| CN(C)CCN(C)Cc1cccc2ccccc12 [Compound 98] | Alias: CB-12 fluorescence binding: nd minimum inhibition conc: nd NMR sat. transfer: binds paHO | – |
| O=C(O)c1cc(-c2cccnc2)nc2ccccc12 [Compound 62] | Alias: CB-23 fluorescence binding: nd minimum inhibition conc: nd NMR sat. transfer: does not bind paHO | – |
| CN1CCN(CCCn2cnc3c2c(=O)n(C)c(=O)n3C)CC1 [Compound 145] | Alias: CB-14 fluorescence binding: nd minimum inhibition conc: nd NMR sat. transfer: tested, ambiguous | – |
| O=C(O)c1c[nH]c2c(ccc3ccccc32)c1=O [Compound 52] | Alias: Spec-2 fluorescence binding: nd minimum inhibition conc: nd NMR sat. transfer: do not bind paHO | – |
| O=C(O)c1ccc2c(c1)-c1nc3ccccc3n1C2=O [Compound 57] | Alias: CD-4 fluorescence binding: nd minimum inhibition conc: nd NMR sat. transfer: do not bind paHO | – |
| NC(=O)NC(=O)C[n+]1ccc(C(N)=O)cc1 [Compound 34] | Alias: CD-3 fluorescence binding: nd minimum inhibition conc: nd NMR sat. transfer: do not bind paHO | – |
| NCC(O)(c1ccc(Cl)cc1)c1ccc(Cl)cc1 [Compound 131] | yes, bind paHO | NMR pa-HO [1]: +; MIC ([2]; Pseudomonas aeruginosa): > 250 µg/mL; MIC50 [2, 4]: > 250 µg/mL; MIC50 ([2]; Table 3B, P. aeruginosa): >250 µg/mL |
| Cc1nc(NCCCC(=O)O)c2ccccc2n1 [Compound 71] | Alias: Spec-6 fluorescence binding: nd minimum inhibition conc: nd NMR sat. transfer: do not bind paHO | – |
| O=C(Oc1ccc(OC(=O)c2ccco2)cc1)c1ccco1 [Compound 47] | Alias: CB-3 fluorescence binding: nd minimum inhibition conc: nd NMR sat. transfer: do not bind paHO | – |
| COc1cc(/C=N/Cc2ccco2)ccc1O [Compound 104] | Alias: CD-13 fluorescence binding: nd minimum inhibition conc: nd NMR sat. transfer: do not bind paHO | – |
| NC(=O)c1ccc[n+](-c2ccccc2)c1 [Compound 91] | Alias: Spec-10 fluorescence binding: nd minimum inhibition conc: nd NMR sat. transfer: do not bind paHO | – |
| O=C(NCc1ccco1)c1cc(C(=O)NCc2ccco2)cc([N+](=O)[O-])c1 [Compound 40] | Alias: CB-25 fluorescence binding: nd minimum inhibition conc: nd NMR sat. transfer: does not bind paHO | – |
| CCc1ccc2[nH]c3nc(N/N=C/c4ccc(O)cc4)nnc3c2c1 [Compound 139] | Alias: CB-27 fluorescence binding: nd minimum inhibition conc: nd NMR sat. transfer: does not bind paHO | – |
| CC(C)c1ccc(CN2CCN(CCO)CC2)cc1 [Compound 132] | Alias: CB-13 fluorescence binding: nd minimum inhibition conc: nd NMR sat. transfer: tested, ambiguous | – |
| Nc1nonc1-c1noc(-c2cccnc2O)n1 [Compound 113] | Alias: CD-17 fluorescence binding: nd minimum inhibition conc: nd NMR sat. transfer: do not bind paHO | – |
| O=C(O)c1ccc2c(c1)C(=O)N(CCO)C2=O [Compound 151] | Alias: CB-8 fluorescence binding: nd minimum inhibition conc: nd NMR sat. transfer: binds paHO | – |
| O=C1OC(c2ccccc2)=N/C1=C\Nc1cccc([N+](=O)[O-])c1 [Compound 147] | Alias: CB-26 fluorescence binding: nd minimum inhibition conc: nd NMR sat. transfer: does not bind paHO | – |
| O=C(O)Cn1c(=O)c2cc3c(=O)n(CC(=O)O)c(=O)c3cc2c1=O [Compound 4] | Alias: CB-2 fluorescence binding: nd minimum binding conc: nd NMR sat. transfer: do not bind paHO | – |
| O=C(CNC(=O)c1cccnc1)N/N=C/c1ccccn1 [Compound 9] | Alias: CD-21 fluorescence binding: nd minimum inhibition conc: nd NMR sat. transfer: do not bind paHO | – |
| O=C(N/N=C/c1ccc(O)cc1O)c1cccnc1 [Compound 11] | Alias: CD-20 fluorescence binding: nd minimum inhibition conc: nd NMR sat. transfer: do not bind paHO | – |
| Cc1ccc(NC(=O)c2cnccn2)cc1Cl [Compound 38] | Alias: CB-24 fluorescence binding: nd minimum inhibition conc: nd NMR sat. transfer: does not bind paHO | – |
| Cc1cccc(NC(=O)c2ccc(C(=O)Nc3cccc(C)n3)cc2)n1 [Compound 39] | Alias: CB-20 fluorescence binding: nd minimum inhibition conc: nd NMR sat. transfer: tested, ambiguous | – |
| Nc1nnnn1/N=C/c1cc2c(cc1[N+](=O)[O-])OCO2 [Compound 143] | Alias: CB-19 fluorescence binding: nd minimum inhibition conc: nd NMR sat. transfer: binds paHO | – |
| C=CCNC(=O)C(=O)Nc1ccc(C(C)C)cc1 [Compound 124] | Alias: CB-30 fluorescence binding: nd minimum inhibition conc: nd NMR sat. transfer: tested, ambiguous | – |
| Cc1n[nH]c(Nc2ccccc2F)c1[N+](=O)[O-] [Compound 20] | Alias: CD-6 fluorescence binding: nd minimum inhibition conc: nd NMR sat. transfer: do not bind paHO | – |
